# According to paper PMC4919066 (PLoS Pathogens, 2016):
# Where a name gives a salt, the structure may show the parent alone.
# Columns and labels:
# HCMV = experiment: Virus entry, pp65 immunofluorescence assay; assay type: cell-based, Human Cytomegalovirus; conditions: emetine 75 nM, GCV 10 μM, CpG 2006 10 μM, added 24 h prior to infection
# [1] = system: HCMV proteins IE1/2, UL44 and pp65; experiment: Western blot of viral proteins; assay type: cell-based, Human Cytomegalovirus; conditions: emetine 75 nM, 72 hpi
# Description: Cell lysates were quantified for protein content using bicinchoninic acid (BCA) protein assay kit (Pierce Chemical, Rockford, IL). Equivalent amount of proteins were used for Western blot analysis as described previously (11). Protein bands were visualized by chemiluminescence using Western Blotting Luminol Reagent (Santa Cruz Biotechnology, Santa Cruz, CA). The following antibodies were used for detection of HCMV proteins: mouse anti-IE1 and IE2, (MAb810); mouse anti-UL44 (Santa Cruz biotechnology); mouse monoclonal anti-pp65 (Vector laboratories, Burlingame, CA); mouse monoclonal anti-β-actin antibody (Millipore, Billerica, MA); rabbit polyclonal anti-RPS14 and mouse monoclonal anti-MDM2 (AbCam, Cambridge, UK), mouse monoclonal anti-p53 (Santa Cruz); horseradish peroxidase (HRP)-conjugated goat anti-rabbit IgG (Cell Signaling); and HRP-conjugated sheep anti-mouse IgG, (GE Healthcare, Waukesha, WI). For detection of co-immunoprecipitated proteins, protein A-HRP conjugate (Cell Signaling Technologies, Beverly, MA) was used as secondary antibody to eliminate the interfering IgG bands.
# MCMV = system: MCMV
# Procedure: For infection experiments BALB/c mice, 4–6 weeks old, were purchased from Harlan Laboratories (Indianapolis, Indiana). The Animal Care and Use Committee of Johns Hopkins University approved the experimental procedures. […] Mice were infected intraperitoneally with 10^6 PFU/mice (0.1 mL in 0.8% saline). Control mice received 0.1 ml of saline intraperitoneally. […] GCV was administered intraperitoneally twice daily. […] Control and infected mice received equivalent volumes of saline. Mice were sacrificed at day 14 after infection. Blood samples were collected by cardiac puncture. Salivary glands and liver were harvested and stored at -80°C. Organs were homogenized in DMEM with 4% FBS at a final concentration of 100 mg/mL. Two million MEFs were seeded into 24-well plates. From each sample, 5% of the salivary gland homogenate or 10% of the liver homogenate was used for infection of MEFs in triplicates. Plaques were counted after three days. Whole blood viral load was measured at day 14 by real-time PCR of the glycoprotein B (gB) gene. DNA was extracted using the DNA blood mini kit (Qiagen, Georgetown, MD).
# MDM2-IE2 = experiment: Co-immunoprecipitation MDM2-IE2 in transfected HEK293 cells; assay type: cell-based; conditions: IE1/2 transfection, emetine 75 nM or GCV 5 μM for 4 h
# Procedure: HEK-293 cells seeded into 10 cm petri dishes were transfected with HCMV plasmid encoding IE1 and IE2 (pRL45), using Lipofectamine 2000 in serum free medium. After 6 h, 10% FBS containing media was added along with 10 μM of MG132. […] Cells were then harvested to prepare lysates for IP.
# Non-infected, infected or emetine-treated HFFs were treated with MG132 (10 μM) for 12h. Cells were harvested after 24 hpi and lysed with IP buffer containing 150 mM NaCl, 50mM Tris pH 7.5, 2 mM EDTA, 0.5% TritonX-100 and 0.5% NP-40-40. 1 mg of lysate was precleared with bead slurry for 30 min. The precleared lysates were incubated with anti-MDM2 (2 μg) antibody overnight. The antibody complexes were isolated using protein A/G beads (Santa Cruz), washed three times with 50% IP buffer. The immunoprecipitate-protein A/G beads were boiled in SDS sample buffer, and the supernatant was analyzed on SDS-PAGE gels after immunoblotting as described previously. 1% of the cell lysate used for IP was loaded on gels as ‘Input’. Confirmatory reverse IPs were performed as described in each experiment. Isotype control antibodies included: rabbit IgG polyclonal, mouse IgG2a kappa and mouse IgG2b kappa monoclonal (Abcam). Mouse monoclonal RPS19 antibody (Abcam) served as an additional negative control for the IPs. Densitometry analysis was performed to determine relative ratio of immunoprecipitated protein to its input level.
# [2] = system: clinical isolates of HSV2; experiment: HSV-2 plaque assay in HFFs; assay type: cell-based; conditions: Human alphaherpesvirus 2, read-out: Mean EC50 ± SD
# Procedure: The pp28-luciferase HCMV Towne and a GCV-resistant pp28-luciferase were used. The recombinant viruses express luciferase under the control of the late CMV gene promoter, pp28. Luciferase expression is activated 48–72 hours post infection (hpi). The recombinant viruses provide a highly-sensitive reporter system which correlates with plaque reduction assay. The Towne HCMV strain (ATCC VR-977) was used for plaque reduction, quantitative reverse transcriptase PCR (qRT-PCR), and immunoprecipitation assays. Human herpes virus strains were: luciferase HSV1- KOS/Dlux/oriS [52] and clinical isolates of HSV2. The clinical isolates were provided by the clinical microbiology laboratory with no identifiers that can link to a specific subject. Murid Herpesvirus (MCMV: ATCC VR-1399) was used for infection of mouse embryonic fibroblasts (MEFs) and mice.
# Human Foreskin Fibroblasts (HFFs) passage 12–16 (ATCC, CRL-2088) and mouse embryonic fibroblasts (MEFs) passage 9–14 (ATCC, CRL-1658) were grown in Dulbecco's Modified Eagle Medium (DMEM) containing 10% fetal bovine serum (FBS) (Gibco, Carlsbad, CA) in a 5% CO2 incubator at 37°C. […] Luciferase activity was measured 72 h following second cycle infection. […] After incubation at 37°C for 10 days (for HCMV), 3 days for MCMV or 2 days (for HSV), the overlay was removed and plaques were counted after crystal violet staining.
# [3] = all treatment regimens (0.1 or 1 mg/kg oral, from 24 or 72 hpi), day 14
smiles,measurement,setting,value
"CC[C@H]1CN2CCc3cc(OC)c(OC)cc3[C@@H]2C[C@@H]1C[C@H]1NCCc2cc(OC)c(OC)cc21 [emetine, emetine dihydrochloride hydrate]",inhibition of viral entry,HCMV,neither emetine nor GCV inhibited viral entry
same,"expression of HCMV proteins IE1/2, UL44 and pp65",[1],significantly reduced
same,decrease in MCMV DNA copy number in blood compared to infected control,"MCMV; 0.1 or 1 mg/kg orally every three days from 24 h or 72 h after infection, day 14",2 to 4 log10
same,reduction of viral PFUs in liver,MCMV; [3],3–6 fold
same,reduction of viral PFUs in salivary gland,MCMV; [3],4–6 fold
same,tolerability in mouse CMV model,MCMV; mouse,well-tolerated
same,interaction between MDM2 and IE2,MDM2-IE2,significantly decreased
same,EC50,[2],33 nM
